Source: patent US4446133A, “1-Phenyl-4-carbamoyl piperazine compounds, process for preparation thereof and utilizations thereof” (Misuitoatsu Chemicals, Inc., priority 1980, dated 1984)

How the values were obtained:
adjuvant arthritis = test: Test 2: Adjuvant Arthritis Test; type: in vivo, SD male rats; conditions: 5 mg/kg subcutaneous, 9 times, left hind leg, * P<0.05, ** P<0.01; for Swelling Ratio (average value ± standard variation), 15 days: control 84.4 ± 9.0; for Swelling Ratio (average value ± standard variation), 18 days: control 103.2 ± 9.7; for Swelling Ratio (average value ± standard variation), 21 days: control 107.5 ± 13.3
Sarcoma 180 [1] = test: Test 4: Test of Antitumor Effect to Sarcoma 180 by Oral Administration; type: in vivo, ICR female mice; conditions: for D: average diameter of tumor, 2 weeks / D: average diameter of tumor, 4 weeks / D: average diameter of tumor, 6 weeks / D: average diameter of tumor, 8 weeks / D: average diameter of tumor, 10 weeks: 100 mg/kg oral once a day, 10 days; for D: average diameter of tumor, 2 weeks: control 10.6; for D: average diameter of tumor, 4 weeks: control 15.2; for D: average diameter of tumor, 6 weeks: control 22.4; for D: average diameter of tumor, 8 weeks: control 31.5; for D: average diameter of tumor, 10 weeks: control 37.6; for N: number of living mice, 0 weeks / N: number of living mice, 2 weeks / N: number of living mice, 4 weeks / N: number of living mice, 6 weeks / N: number of living mice, 8 weeks / N: number of living mice, 10 weeks: 100 mg/kg oral, of 6 mice; for N: number of living mice, 0 weeks / N: number of living mice, 2 weeks / N: number of living mice, 4 weeks / N: number of living mice, 6 weeks: control 6; for N: number of living mice, 8 weeks: control 5; for N: number of living mice, 10 weeks: control 1
Description: To the control group, a physiological saline solution was similarly administered. The dose of the compound was 100 mg per Kg of the body weight. The diameter D (mm) of the tumor was measured, and the average value and the number N of the living mice were determined to obtain results shown in Table 4.

Sarcoma 180 [2] = test: Test 5: Test of Antitumor Effect to Sarcoma 180 by Subcutaneous Administration; type: in vivo, ICR female mice; conditions: 20 mg/kg subcutaneous; for D: average diameter of tumor, 2 weeks: control 10.8; for D: average diameter of tumor, 4 weeks: control 16.6; for D: average diameter of tumor, 6 weeks: control 20.3; for D: average diameter of tumor, 8 weeks: control 31.3; for D: average diameter of tumor, 10 weeks: control 40.5; for N: number of living mice, 0 weeks / N: number of living mice, 2 weeks / N: number of living mice, 4 weeks / N: number of living mice, 6 weeks / N: number of living mice, 8 weeks / N: number of living mice, 10 weeks: of 6 mice; for N: number of living mice, 0 weeks / N: number of living mice, 2 weeks / N: number of living mice, 4 weeks / N: number of living mice, 6 weeks: control 6; for N: number of living mice, 8 weeks: control 4; for N: number of living mice, 10 weeks: control 1
Description: To the control group, a physiological saline solution was similarly administered. […] The diameter D (mm) of the tumor was measured, and the average value and the number N of the living mice were determined to obtain results shown in Table 4.

SMILES	Swelling Ratio (average value ± standard variation), 15 days (adjuvant arthritis) [%]	Swelling Ratio (average value ± standard variation), 18 days (adjuvant arthritis) [%]	Swelling Ratio (average value ± standard variation), 21 days (adjuvant arthritis) [%]	D: average diameter of tumor, 2 weeks (Sarcoma 180 [1]) [mm]	D: average diameter of tumor, 4 weeks (Sarcoma 180 [1]) [mm]	D: average diameter of tumor, 6 weeks (Sarcoma 180 [1]) [mm]	D: average diameter of tumor, 8 weeks (Sarcoma 180 [1]) [mm]	D: average diameter of tumor, 10 weeks (Sarcoma 180 [1]) [mm]	N: number of living mice, 0 weeks (Sarcoma 180 [1])	N: number of living mice, 2 weeks (Sarcoma 180 [1])	N: number of living mice, 4 weeks (Sarcoma 180 [1])	N: number of living mice, 6 weeks (Sarcoma 180 [1])	N: number of living mice, 8 weeks (Sarcoma 180 [1])	N: number of living mice, 10 weeks (Sarcoma 180 [1])	D: average diameter of tumor, 2 weeks (Sarcoma 180 [2]) [mm]	D: average diameter of tumor, 4 weeks (Sarcoma 180 [2]) [mm]	D: average diameter of tumor, 6 weeks (Sarcoma 180 [2]) [mm]	D: average diameter of tumor, 8 weeks (Sarcoma 180 [2]) [mm]	D: average diameter of tumor, 10 weeks (Sarcoma 180 [2]) [mm]	N: number of living mice, 0 weeks (Sarcoma 180 [2])	also measured
CCN(CC)C(=O)N1CCN(c2ccccc2)CC1 [drawing 17]	47.0 ± 8.0	52.4 ± 9.2	59.8 ± 12.1																		
CCN(CC)C(=O)N1CCN(c2ccc(Cl)cc2)CC1 [drawing 18]	57.9 ± 11.1	55.7 ± 9.7	62.8 ± 10.9																		
CCN(CC)C(=O)N1CCN(c2ccc(OC)cc2)CC1 [drawing 19]	60.1 ± 11.3	57.1 ± 8.8	64.4 ± 10.5																		
CCOC(=O)c1ccc(N2CCN(C(=O)N(CC)CC)CC2)cc1 [drawing 20]	63.7 ± 12.0	60.4 ± 9.2	66.9 ± 11.1																		
CCN(CC)C(=O)N1CCN(c2ccc(C(=O)O)cc2)CC1 [drawing 21]	65.0 ± 10.2	64.6 ± 7.9	70.8 ± 10.7																		
CCN(CC)C(=O)N1CCN(c2ccc(C(C)=O)cc2)CC1 [drawing 22]	61.4 ± 10.4	62.2 ± 8.8	68.4 ± 12.0																		
CCN(CC)C(=O)N1CCN(c2ccccc2)CC1 [drawing 29]				7.8	6.6	3.7	0.9	0	6	6	6	6	6	6							
CCN(CC)C(=O)N1CCN(c2ccc(Cl)cc2)CC1 [drawing 30]				7.1	5.8	3.0	0	0	6	6	6	6	6	6							
CCN(CC)C(=O)N1CCN(c2ccc(OC)cc2)CC1 [drawing 31]				8.1	4.6	5.0	2.2	0.6	6	6	6	6	6	6							
CCOC(=O)c1ccc(N2CCN(C(=O)N(CC)CC)CC2)cc1 [drawing 32]				9.2	7.4	4.8	3.2	0	6	6	6	6	6	6							
CCN(CC)C(=O)N1CCN(c2ccc(C(=O)O)cc2)CC1 [drawing 33]				6.8	3.5	4.4	2.2	0	6	6	6	6	6	6							
CCN(CC)C(=O)N1CCN(c2ccc(C(C)=O)cc2)CC1 [drawing 34]				8.4	4.7	5.1	6.6	0	6	6	6	6	6	6							
CCN(CC)C(=O)N1CCN(c2ccccc2)CC1 [drawing 35]															2.9	4.1	4.8	1.0	0	6	N: number of living mice, 2 weeks (Sarcoma 180 [2]): 6; N: number of living mice, 4 weeks (Sarcoma 180 [2]): 6; N: number of living mice, 6 weeks (Sarcoma 180 [2]): 6; N: number of living mice, 8 weeks (Sarcoma 180 [2]): 6; N: number of living mice, 10 weeks (Sarcoma 180 [2]): 6
CCN(CC)C(=O)N1CCN(c2ccc(Cl)cc2)CC1 [drawing 36]															2.3	2.1	3.8	0	0	6	N: number of living mice, 2 weeks (Sarcoma 180 [2]): 6; N: number of living mice, 4 weeks (Sarcoma 180 [2]): 6; N: number of living mice, 6 weeks (Sarcoma 180 [2]): 6; N: number of living mice, 8 weeks (Sarcoma 180 [2]): 6; N: number of living mice, 10 weeks (Sarcoma 180 [2]): 6
CCN(CC)C(=O)N1CCN(c2ccc(OC)cc2)CC1 [drawing 37]															3.0	1.0	2.2	5.3	4.0	6	N: number of living mice, 2 weeks (Sarcoma 180 [2]): 6; N: number of living mice, 4 weeks (Sarcoma 180 [2]): 6; N: number of living mice, 6 weeks (Sarcoma 180 [2]): 6; N: number of living mice, 8 weeks (Sarcoma 180 [2]): 6; N: number of living mice, 10 weeks (Sarcoma 180 [2]): 6
CCOC(=O)c1ccc(N2CCN(C(=O)N(CC)CC)CC2)cc1 [drawing 38]															3.2	3.4	3.8	2.5	0.8	6	N: number of living mice, 2 weeks (Sarcoma 180 [2]): 6; N: number of living mice, 4 weeks (Sarcoma 180 [2]): 6; N: number of living mice, 6 weeks (Sarcoma 180 [2]): 6; N: number of living mice, 8 weeks (Sarcoma 180 [2]): 6; N: number of living mice, 10 weeks (Sarcoma 180 [2]): 6
CCN(CC)C(=O)N1CCN(c2ccc(C(=O)O)cc2)CC1 [drawing 39]															2.1	4.4	4.8	3.9	0	6	N: number of living mice, 2 weeks (Sarcoma 180 [2]): 6; N: number of living mice, 4 weeks (Sarcoma 180 [2]): 6; N: number of living mice, 6 weeks (Sarcoma 180 [2]): 6; N: number of living mice, 8 weeks (Sarcoma 180 [2]): 6; N: number of living mice, 10 weeks (Sarcoma 180 [2]): 6
CCN(CC)C(=O)N1CCN(c2ccc(C(C)=O)cc2)CC1 [drawing 40]															4.1	7.7	8.5	4.3	0	6	N: number of living mice, 2 weeks (Sarcoma 180 [2]): 6; N: number of living mice, 4 weeks (Sarcoma 180 [2]): 6; N: number of living mice, 6 weeks (Sarcoma 180 [2]): 6; N: number of living mice, 8 weeks (Sarcoma 180 [2]): 6; N: number of living mice, 10 weeks (Sarcoma 180 [2]): 6
